In publication PMC11530130, “Peripherally restricted PICK1 inhibitor mPD5 ameliorates pain behaviors in murine inflammatory and neuropathic pain models” (JCI Insight, 2024):

How the values were obtained:
[1] = system: mice, spared nerve injury (SNI) model; format: in vivo, mouse; details: mouse, in vivo, sc
Procedure: solution (0.05 mg/kg) injected s.c. 30 min before surgery (10 μL/g). For surgery, mice were anaesthetised with ketamine (100 mg/kg, i.p.) and xylazine (10 mg/kg, i.p.) (volume 10 µL/g) with 100 μL of 1% xylocaine solution infiltrated at the site of the incision. The distal trifurcation of the sciatic nerve was identified, and the tibial and common peroneal branches were ligated with polypropylene nonabsorbable 6-0 sutures (Ethicon) and 1 mm was cut out, leaving the sural branch intact. The wound was closed with sutures, and the animals were allowed to recover and returned to their cages. Two subcutaneous injections of buprenorphine (0.05 mg/kg) were performed with an 8 to 12 hours delay decreasing pain due to the surgery […]
The remaining SNI pain experiments were performed in-house using the following procedure.
SNI surgery was performed on the left hindleg of C57BL/6J male and female mice (Janvier, France) under 2% isoflurane anaesthesia. Skin on the lateral surface was incised between hip and knee followed by lengthwise division of the biceps femoris muscle leading to exposure of the three branches of the sciatic nerve. Sural branch was left intact, while the peroneal and tibial branches were ligated with a single surgical knot and axotomized distally of the ligation.
Wounds were closed with surgical glue or medical clips and animals were monitored daily for signs of stress or discomfort, but in all cases recovered uneventfully. […]
(§1) The skin wound was closed with two medical clips (Michel Suture Clips, 7.5x1.75 mm, Angthos, 12040-01). Post-surgical analgesia included s.c. injection of 5 mg/kg carprofen (Carprosan vet, 50 mg/mL mixed 1:25 in sterile ddH2O, Dechra, Le Vet Beheer B.V., Netherlands, Batch: 050520) right after surgery and the […]
(§2) following day. […]
(§3) The test battery of the CIBP model was carried out 45 or 90 min after morphine and mPD5 administration respectively to accommodate the peak efficacy […]
(§4) Mechanically evoked pain (von Frey test).
(§5) Unless otherwise specified, von Frey occurred as described in the following. Animals were habituated to the experimental room for a minimum of 60 min before initiation of the experiment. Mechanical paw withdrawal threshold (PWT) was determined by von Frey measurements of both hind paws. Von Frey filaments ranging from 0.04 to 2 g (g = gram- […]
(§6) Filaments in ascending order were applied to the frontocentral plantar surface of the hind paws.
(§7) Mice were placed in PVC plastic boxes (11.5 cm x 14 cm) on a wire mesh and allowed minimum 20 min habituation prior of experiment initiation. Each von Frey hair was applied five times with adequate resting periods between each application and number of withdrawals recorded. The withdrawal threshold was determined as the von Frey filament eliciting at least three positive trials out of the five applications in two consecutive filaments. A positive trial was defined as sudden paw withdrawal, flinching and/or paw licking induced by the filament.
(§8) For the CIBP model, two habituation sessions were performed on separated days with mice placed in the von Frey equipment for 1-1.5 hours in the presence of the experimenter on day one and random von Frey pocking with the 0.6 g filament on day two. Von Frey monofilaments (North Coast Touch Test, North Coast Medical, Inc.) with target forces of 0.04g, 0.07g, 0.16g, […]
(§9) down method” (PWT=10Xf+kδ) starting with the 0.6 g filament. Positive response was defined as; withdrawal, shaking or grooming of paw following a 2-3 second stimulation. In case, of unclear response, stimulus was repeated after 10-15 seconds.
(§10) For the STZ model, the mechanical threshold response of the injected mice was measured with […]
(§11) injection of test compounds on day 14, mechanical threshold was measured at 1 hour, 2 hours, 4 hours and 6 hours and again on day 15. […]
(§12) Thermally evoked pain (Hargreaves test).
A baseline Hargreaves test was performed on day 0 before inflammatory pain was induced as described in section 2.13. In the Hargreaves test, the mouse was placed in a container on a glass […]

[2] = system: mice, streptozocin (STZ) model of type 1 diabetes; test: STZ model of diabetic neuropathy, von Frey; format: in vivo, mouse; details: male mice, positive control, dose not given
Procedure: Induction of Diabetic neuropathy (STZ model).
Diabetes was induced by a single i.p. injection of […] streptozocin (STZ) solution (100 μL/10 g, Sigma-Aldrich S0130, batch #WXBB7152V) in male seven-week-old C57BL/6J (Charles River) mice. Glycemia was tested before, and seven days after injection. All injected mice had blood glucose concentration >350 mg/dL from day seven and were used for analgesic testing of the compounds from day 14. One mouse had to be euthanized at seven days post injection. This experiment was performed by Phenotype Expertise, Marseilles, France - Pain and CNS behaviour CRO under supervision of Stéphane Gaillard, PhD (CEO). […]
as §1, §2, §3, §4, §5, §6, §7, §8, §9, §10, §11, §12
A baseline Hargreaves test was performed on day 0 before inflammatory pain was induced as described in section 2.13. In the Hargreaves test, the mouse was placed in a container on a glass table and left to habituate for at least 15 min. Using the Hargreaves apparatus, a heat beam from beneath was directed towards the hind paws of the mouse, and the paw withdrawal time

## CCCCCCCCCCCCCCCCCCCC(=O)N(CCOCCOCCC(=O)N[C@@H](Cc1c[nH]cn1)C(=O)N[C@@H](Cc1c[nH]c2ccccc12)C(=O)N[C@@H](CC(C)C)C(=O)N[C@@H](CCCCN)C(=O)N[C@H](C(=O)O)C(C)C)CCOCCOCCC(=O)N[C@@H](Cc1c[nH]cn1)C(=O)N[C@@H](Cc1c[nH]c2ccccc12)C(=O)N[C@@H](CC(C)C)C(=O)N[C@@H](CCCCN)C(=O)N[C@H](C(=O)O)C(C)C [aPD5, arachidoyl-NPEG4-(HWLKV)2]
[1]
  itching in the mice: profound itching

## CCCCCCCCCCCCCCCCCC(=O)N(CCOCCOCCC(=O)N[C@@H](Cc1c[nH]cn1)C(=O)N[C@@H](Cc1c[nH]c2ccccc12)C(=O)N[C@@H](CC(C)C)C(=O)N[C@@H](CCCCN)C(=O)N[C@H](C(=O)O)C(C)C)CCOCCOCCC(=O)N[C@@H](Cc1c[nH]cn1)C(=O)N[C@@H](Cc1c[nH]c2ccccc12)C(=O)N[C@@H](CC(C)C)C(=O)N[C@@H](CCCCN)C(=O)N[C@H](C(=O)O)C(C)C [sPD5, stearoyl-NPEG4-(HWLKV)2]
[1]
  itching in the mice: profound itching

## CC(C)C[C@H](CN)CC(=O)O [pregabalin, reference compound]
[2]
  duration of significant pain relief: up to 4 hours
